# Results published in patent US20260062443A1 (ALEXION PHARMACEUTICALS, INC., priority 2022, published 2026).
# pIC50: −log10 of the molar value.
# Biological target: T1, Human complement C1s enzyme (Homo sapiens, UniProt P09871)
# T1 sequence (P09871 438-688 limits assumed): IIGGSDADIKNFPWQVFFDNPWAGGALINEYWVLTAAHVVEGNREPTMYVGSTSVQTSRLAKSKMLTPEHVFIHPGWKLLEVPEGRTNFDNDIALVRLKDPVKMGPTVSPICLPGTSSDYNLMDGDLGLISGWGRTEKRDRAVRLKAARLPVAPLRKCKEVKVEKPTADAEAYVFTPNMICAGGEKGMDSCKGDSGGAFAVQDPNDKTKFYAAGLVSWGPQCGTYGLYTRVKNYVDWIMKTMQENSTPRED
# T1 sequence (P09871 16-437 partner limits assumed): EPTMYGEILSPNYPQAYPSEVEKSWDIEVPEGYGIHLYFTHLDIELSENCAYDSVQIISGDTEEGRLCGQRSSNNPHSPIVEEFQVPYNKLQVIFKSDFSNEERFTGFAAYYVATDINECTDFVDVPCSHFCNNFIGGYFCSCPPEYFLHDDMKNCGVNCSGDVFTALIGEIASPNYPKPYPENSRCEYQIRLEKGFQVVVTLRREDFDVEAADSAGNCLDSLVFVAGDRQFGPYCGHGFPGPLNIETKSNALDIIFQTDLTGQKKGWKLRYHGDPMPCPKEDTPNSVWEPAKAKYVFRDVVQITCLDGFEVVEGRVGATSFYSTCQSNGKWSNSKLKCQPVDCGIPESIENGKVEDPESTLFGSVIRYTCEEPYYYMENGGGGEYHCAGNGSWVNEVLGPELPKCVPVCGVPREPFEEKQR
# Assay: Human C1s enzyme assay
# Type: biochemical
# Details: human complement C1s enzyme 1.16 nM, substrate Z-L-Lys-SBzl 100 μM, 5 min preincubation; read-out: IC50 (Stars), C1s Inhibiting Activity
# Summary of the method: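 IC50 from nonlinear regression of reaction rates versus compound concentration, with rates taken from A405 recorded at 30 s intervals over 30 min after adding 100 μM Z-L-Lys-SBzl plus 100 μM DTNB. Enzyme was human C1s purified from serum, 1.16 nM, given 5 min compound preincubation at room temperature, pH 7.5 Tris/1 M NaCl.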
row,SMILES,pIC50
1,"Cc1ccc(-c2cnc(C(=O)NCC(=O)N3CC4(C[C@H]3C(=O)N[C@H](C)c3cc5cnccc5[nH]3)OCCO4)c(F)c2)cc1 [Compound 115, (S)-N-((R)-1-(1H-pyrrolo[3,2-c]pyridin-2-yl)ethyl)-7-((3-fluoro-5-(p-tolyl)picolinoyl)glycyl)-1,4-dioxa-7-azaspiro[4.4]nonane-8-carboxamide]",< 6.00
2,"O=C(NCC(=O)N1C[C@H](OC(F)F)C[C@H]1C(=O)NCc1ccc2c(c1)CNCC2)c1ccc2c(c1)Oc1ccccc1S2 [Compound 226, (2S,4R)-4-(difluoromethoxy)-1-((phenoxathiine-3-carbonyl)glycyl)-N-((1,2,3,4-tetrahydroisoquinolin-7-yl)methyl)pyrrolidine-2-carboxamide]",< 6.00
3,"C[C@@]12C[C@@H]1N(C(=O)CNC(=O)c1ccc3c(c1)Oc1ccccc1S3)[C@H](C(=O)NCc1ccc(B(O)O)cc1)C2 [Compound 263, (4-(((1S,3S,5S)-5-methyl-2-((phenoxathiine-3-carbonyl)glycyl)-2-azabicyclo[3.1.0]hexane-3-carboxamido)methyl)phenyl) boronic acid]",< 6.00
4,"CC1(O)c2ccccc2-c2cc(C(=O)NCC(=O)N3C[C@H](OC(F)F)C[C@H]3C(=O)NCc3cc4cnccc4[nH]3)ccc21 (stereo partly drawn) [Compound 314, (2S,4R)-N-((1H-pyrrolo[3,2-c]pyridin-2-yl)methyl)-4-(difluoromethoxy)-1-((9-hydroxy-9-methyl-9H-fluorene-3-carbonyl)glycyl) pyrrolidine-2-carboxamide]",> 7.00
5,"O=C(NCC(=O)N1CC2(C[C@H]1C(=O)NCc1cc3cnccc3[nH]1)OCCO2)c1ccc(C(=O)c2ccccc2)cc1 [Compound 33, (S)-N-((1H-pyrrolo[3,2-c]pyridin-2-yl)methyl)-7-((4-benzoylbenzoyl)glycyl)-1,4-dioxa-7-azaspiro[4.4]nonane-8-carboxamide]",> 7.00
6,"C[C@@]12C[C@@H]1N(C(=O)CNC(=O)CCCOc1ccccc1)[C@H](C(=O)NCCCn1ccnc1)C2 [Compound 59, (1S,3S,5S)-N-(3-(1H-imidazol-1-yl)propyl)-5-methyl-2-((4-phenoxybutanoyl)glycyl)-2-azabicyclo[3.1.0]hexane-3-carboxamide]",< 6.00
7,Cc1ccc(Oc2cccc(C(=O)NCC(=O)N3C[C@H](OC(F)F)C[C@H]3C(=O)NCc3cc4cnccc4[nH]3)c2)cc1 [Compound 272],> 7.00
8,"C[C@@H](NC(=O)[C@@H]1C[C@@H](OC(F)F)CN1C(=O)CNC(=O)c1cccc2c1-c1ccccc1C2(F)F)c1cc2cnccc2[nH]1 [Compound 134, (2S,4R)-N-((R)-1-(1H-pyrrolo[3,2-c]pyridin-2-yl)ethyl)-1-((9,9-difluoro-9H-fluorene-4-carbonyl)glycyl)-4-(difluoromethoxy)pyrrolidine-2-carboxamide]",< 6.00
9,"O=C(NCC(=O)N1C[C@H](OC(F)F)C[C@H]1C(=O)NCc1ccc2cnccc2c1)c1ccc2c(c1)Oc1ccccc1S2 [Compound 236, (2S,4R)-4-(difluoromethoxy)-N-(isoquinolin-6-ylmethyl)-1-((phenoxathiine-3-carbonyl)glycyl)pyrrolidine-2-carboxamide]",< 6.00
10,"CC(NC(=O)[C@@H]1CC2(CN1C(=O)CNC(=O)c1ccc3c(c1)Oc1ccccc1S3)OCCO2)c1cc2cnccc2[nH]1 (stereo in doubt) [Compound 102, (S)-N-((S)-1-(1H-pyrrolo[3,2-c]pyridin-2-yl)ethyl)-7-((phenoxathiine-3-carbonyl)glycyl)-1,4-dioxa-7-azaspiro[4.4]nonane-8-carboxamide]",> 7.00
11,"Cc1ccc(Oc2cccc(C(=O)NCC(=O)N3CCC[C@H]3C(=O)NCc3cc4cnccc4[nH]3)c2)c(F)c1 [Compound 310, (S)-N-((1H-pyrrolo[3,2-c]pyridin-2-yl)methyl)-1-((3-(2-fluoro-4-methylphenoxy)benzoyl)glycyl)pyrrolidine-2-carboxamide]",> 7.00
12,"Cc1ccc2oc3ccc(C(=O)NCC(=O)N4C[C@H](OC(F)F)C[C@H]4C(=O)NCc4cc5cnccc5[nH]4)cc3c2c1 [Compound 334, (2S,4R)-N-((1H-pyrrolo[3,2-c]pyridin-2-yl)methyl)-4-(difluoromethoxy)-1-((8-methyldibenzo[b,d]furan-2-carbonyl)glycyl)pyrrolidine-2-carboxamide]",> 7.00
13,"C[C@H](NC(=O)[C@@H]1CC2(CN1C(=O)CNC(=O)c1ccc3c(c1)-c1ccccc1C3(F)F)OCCO2)c1cc2cnccc2[nH]1 [Compound 23, (S)-N-((S)-1-(1H-pyrrolo[3,2-c]pyridin-2-yl)ethyl)-7-((9,9-difluoro-9H-fluorene-3-carbonyl)glycyl)-1,4-dioxa-7-azaspiro[4.4]nonane-8-carboxamide]",< 6.00

# Second part, the compound after the results:
row,pIC50,SMILES
1,> 7.00,"O=C(NCC(=O)N1CC2(C[C@H]1C(=O)NCc1cc3cnccc3[nH]1)OCCO2)c1ccc2[nH]c3ccccc3c2c1 [Compound 211, (S)-N-((1H-pyrrolo[3,2-c]pyridin-2-yl)methyl)-7-((9H-carbazole-3-carbonyl)glycyl)-1,4-dioxa-7-azaspiro[4.4]nonane-8-carboxamide]"
2,> 7.00,"COC[C@H]1C[C@@H](C(=O)N[C@H](C)c2cc3cnccc3[nH]2)N(C(=O)CNC(=O)c2ccc3c(c2)Oc2ccccc2S3)C1 [Compound 132, (2S,4S)-N-((R)-1-(1H-pyrrolo[3,2-c]pyridin-2-yl)ethyl)-4-(methoxymethyl)-1-((phenoxathiine-3-carbonyl)glycyl)pyrrolidine-2-carboxamide]"
3,> 7.00,"Cc1ccc(COc2cccc(C(=O)NCC(=O)N3C[C@H](OC(F)F)C[C@H]3C(=O)NCc3cc4cnccc4[nH]3)c2)c(F)c1 [Compound 325, (2S,4R)-N-((1H-pyrrolo[3,2-c]pyridin-2-yl)methyl)-4-(difluoromethoxy)-1-((3-((2-fluoro-4-methylbenzyl)oxy)benzoyl)glycyl)pyrrolidine-2-carboxamide]"
4,> 7.00,"C[C@@H](NC(=O)[C@@H]1C[C@@H](OC(F)F)CN1C(=O)CNC(=O)c1ccc2c(c1)Oc1ccccc1S2)c1cc2cnccc2s1 [Compound 208, (2S,4R)-4-(difluoromethoxy)-1-((phenoxathiine-3-carbonyl)glycyl)-N-((R)-1-(thieno[3,2-c]pyridin-2-yl)ethyl)pyrrolidine-2-carboxamide]"
5,> 7.00,"Cc1ccc(Oc2cccc(C(=O)NCC(=O)N3C[C@H](S(C)(=O)=O)C[C@H]3C(=O)NCc3cc4cnccc4[nH]3)c2)c(F)c1 [Compound 309, (2S,4R)-N-((1H-pyrrolo[3,2-c]pyridin-2-yl)methyl)-1-((3-(2-fluoro-4-methylphenoxy)benzoyl)glycyl)-4-(methylsulfonyl) pyrrolidine-2-carboxamide]"
6,> 7.00,"O=C(NCC(=O)N1C[C@H](OC(F)F)C[C@H]1C(=O)NCc1cc2cnccc2[nH]1)c1ccc2oc3ccccc3c2c1 [Compound 218, (2S,4R)-N-((1H-pyrrolo[3,2-c]pyridin-2-yl)methyl)-1-((dibenzo[b,d]furan-2-carbonyl)glycyl)-4-(difluoromethoxy)pyrrolidine-2-carboxamide]"
7,> 7.00,"Cc1ccc(Oc2cccc(C(=O)NCC(=O)N3C[C@H](OC(F)F)C[C@H]3C(=O)NCc3cc4cnccc4[nH]3)c2)c(Cl)c1 [Compound 292, (2S,4R)-N-((1H-pyrrolo[3,2-c]pyridin-2-yl)methyl)-1-((3-(2-chloro-4-methylphenoxy)benzoyl)glycyl)-4-(difluoromethoxy)pyrrolidine-2-carboxamide]"
